Some test systems named below: OVCAR-8 ovarian; NCI-H226 lung; SR leukemia; MALME-3M melanoma; SK-OV-3 ovarian; SK-MEL-28 melanoma; MCF7 breast; HOP-62 NSCLC; RPMI-8226 leukemia; UACC-257 melanoma.
What all share (assay): DTP human tumour cell line panel, 48 h

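How tested: cells in 96-well plates exposed to compound for 48 hours at five concentrations. The concentration for full growth arrest is given as TGI.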 Where only a bound is given, the exact number is not on record here.

Turning to `Cc1ccc2oc3c(ccc(=O)n3C)c(=O)c2c1`, the concentration for total growth inhibition (TGI) with OVCAR-8 ovarian, in the experiment on NCI-H226 lung, with SR leukemia, with MALME-3M melanoma, in the experiment with SK-OV-3 ovarian and in the experiment with SK-MEL-28 melanoma was over 100 µM throughout. Moreover, the TGI with MCF7 breast and in the experiment with HOP-62 NSCLC was over 100 µM in each case.
For the compound `CC(C)CCCC(C)[C@H]1CCC2[C@@H]3CCC4Cc5nc6c(nc5C[C@]4(C)C3CC[C@@]21C)CC1CC[C@@H]2C(CC[C@@]3(C)C2CC[C@@H]3O)[C@@]1(C)C6` (stereo partly drawn), the TGI in the experiment on OVCAR-8 ovarian, in the experiment on RPMI-8226 leukemia, in the experiment with NCI-H226 lung, in the experiment with SR leukemia, with MALME-3M melanoma and in the experiment with SK-OV-3 ovarian was over 100 µM throughout. For the same compound, the TGI in the experiment on UACC-257 melanoma, in the experiment on SK-MEL-28 melanoma, with MCF7 breast and in the experiment with HOP-62 NSCLC was over 100 µM each time.
On to `COc1cc(S(=O)(=O)Nc2ccc(-c3csc(/N=C\c4cccs4)n3)cc2)ccc1Cl`, for which the TGI (commonly the concentration giving total growth inhibition) with OVCAR-8 ovarian was over 100 µM; with RPMI-8226 leukemia it was over 100 µM; in the experiment with NCI-H226 lung it was over 100 µM; in the experiment with SR leukemia, 52.2 µM; in the experiment on MALME-3M melanoma it was over 100 µM; in the experiment on SK-OV-3 ovarian, over 100 µM. Besides, the TGI is over 100 µM in the experiment on UACC-257 melanoma, over 100 µM with SK-MEL-28 melanoma, 48.5 µM in the experiment with MCF7 breast and over 100 µM in the experiment on HOP-62 NSCLC.
As to `Cc1ccc(C=C(C(=O)O)C(=O)O)o1`, the TGI in the experiment with OVCAR-8 ovarian, with RPMI-8226 leukemia, with NCI-H226 lung, in the experiment on SR leukemia, with MALME-3M melanoma and in the experiment with SK-OV-3 ovarian was over 100 µM throughout. Also, the total growth inhibition concentration (TGI) in the experiment with UACC-257 melanoma, in the experiment on SK-MEL-28 melanoma, with MCF7 breast and with HOP-62 NSCLC was over 100 µM in each case.
As for `FC(F)(F)c1cnc(N/N=C(/c2ccccc2)c2ccccn2)c(Cl)c1`, the concentration for total growth inhibition (TGI) in the experiment on OVCAR-8 ovarian is 5.79 µM; with RPMI-8226 leukemia, over 100 µM; in the experiment on NCI-H226 lung it was 50.4 µM; in the experiment with SR leukemia, 55.3 µM; with SK-OV-3 ovarian, 17.9 µM; with UACC-257 melanoma, 11.5 µM. The values for the TGI in the experiment on SK-MEL-28 melanoma, with MCF7 breast and with HOP-62 NSCLC were over 100 µM, 6.7 µM and 20.3 µM, respectively.
On to `CC1(CCCCO)C=CC(S(=O)(=O)c2ccccc2)CC1` (stereo not drawn), for which the total growth inhibition concentration (TGI) in the experiment with OVCAR-8 ovarian was 23.2 µM; in the experiment with RPMI-8226 leukemia it was 11 µM; in the experiment with NCI-H226 lung it was 9.03 µM; with SR leukemia it was 6.71 µM; in the experiment on MALME-3M melanoma, 12.1 µM; in the experiment on SK-OV-3 ovarian, 22.7 µM. Moreover, the TGI in the experiment on UACC-257 melanoma was 10.9 µM; in the experiment with SK-MEL-28 melanoma, 28.5 µM; in the experiment on MCF7 breast it was 11.3 µM; in the experiment on HOP-62 NSCLC, 12.1 µM.
Take `O=C1c2ccccc2-n2c1nc1ccc(Cl)cc1c2=O`: the TGI in the experiment with OVCAR-8 ovarian, with RPMI-8226 leukemia, in the experiment with NCI-H226 lung, with SR leukemia, with SK-OV-3 ovarian and in the experiment with UACC-257 melanoma was over 100 µM in each case. Besides, the total growth inhibition concentration (TGI) in the experiment on MCF7 breast and with HOP-62 NSCLC was over 100 µM each time.
As to `COc1cccc(N2C(=O)C3CC(CC(C)(C)C)c4c([nH]c5ccccc45)C3C2=O)c1` (stereo not drawn), the TGI was over 10 µM in the experiment on OVCAR-8 ovarian; over 10 µM in the experiment with RPMI-8226 leukemia; over 10 µM in the experiment on NCI-H226 lung; 4.2 µM with SR leukemia; over 10 µM in the experiment with MALME-3M melanoma; over 10 µM in the experiment on SK-OV-3 ovarian. Moreover, the concentration for total growth inhibition (TGI) in the experiment on UACC-257 melanoma, with SK-MEL-28 melanoma, in the experiment with MCF7 breast and in the experiment on HOP-62 NSCLC was over 10 µM throughout.
As for `Cc1cc(C)nc(NC(=S)Nc2ccc(Cl)cc2)c1`, the TGI in the experiment with OVCAR-8 ovarian was 71.5 µM; in the experiment with RPMI-8226 leukemia, over 100 µM; in the experiment with NCI-H226 lung, over 100 µM; with SR leukemia, over 100 µM; in the experiment with MALME-3M melanoma, over 100 µM; with SK-OV-3 ovarian, over 100 µM. Moreover, the TGI with UACC-257 melanoma, in the experiment on SK-MEL-28 melanoma, in the experiment with MCF7 breast and in the experiment with HOP-62 NSCLC was over 100 µM each time.
Turning to `CC1=C2CC(C)(C)CC(=O)C2(C)CCC1=O` (stereo not drawn), the TGI was over 100 µM in the experiment on OVCAR-8 ovarian; 13.8 µM in the experiment with RPMI-8226 leukemia; over 100 µM in the experiment with NCI-H226 lung; over 100 µM in the experiment on SR leukemia; over 100 µM with MALME-3M melanoma; over 100 µM with SK-OV-3 ovarian. Also, the TGI in the experiment with UACC-257 melanoma, in the experiment with SK-MEL-28 melanoma, in the experiment on MCF7 breast and with HOP-62 NSCLC was over 100 µM each time.
Turning to `CC(C)=NNc1ncnc2nc[nH]c12`, the TGI with OVCAR-8 ovarian is over 100 µM; with RPMI-8226 leukemia, over 62 µM; with NCI-H226 lung it was 97 µM; in the experiment with SR leukemia, over 60.8 µM; with MALME-3M melanoma it was over 100 µM; in the experiment with SK-OV-3 ovarian, over 58 µM. For the same compound, the TGI in the experiment with UACC-257 melanoma is over 100 µM; in the experiment with SK-MEL-28 melanoma, over 100 µM; in the experiment on MCF7 breast it was over 100 µM; with HOP-62 NSCLC it was over 76.7 µM.
For the compound `O=C1CC(=O)NC(=NN2C(=O)/C(=C/c3ccc(Cl)cc3)N=C2c2ccccc2)N1`, the total growth inhibition concentration (TGI) in the experiment on OVCAR-8 ovarian is 30.5 µM; with RPMI-8226 leukemia, 58.2 µM; in the experiment on NCI-H226 lung, 31.5 µM; with SR leukemia it was 21.3 µM; with MALME-3M melanoma, 33.4 µM; with SK-OV-3 ovarian, 51.8 µM. The TGI in the experiment on UACC-257 melanoma was found to be 42 µM; with SK-MEL-28 melanoma it was 33.6 µM; with MCF7 breast, 53.7 µM; in the experiment with HOP-62 NSCLC, 30.2 µM.
On to `Nc1c(C(=O)c2ccccc2)nnc2ccccc12`, for which the TGI in the experiment on OVCAR-8 ovarian is over 100 µM; in the experiment on RPMI-8226 leukemia, over 100 µM; in the experiment on NCI-H226 lung it was over 100 µM; in the experiment on SR leukemia it was over 100 µM; with MALME-3M melanoma, 79.1 µM; in the experiment on UACC-257 melanoma it was 90.8 µM. For the same compound, the total growth inhibition concentration (TGI) with SK-MEL-28 melanoma was over 100 µM; in the experiment on MCF7 breast, 62.6 µM; in the experiment with HOP-62 NSCLC it was over 100 µM.
Take `CC(=O)Oc1ccc2cc(Oc3ccccc3)c(=O)oc2c1`: the TGI with OVCAR-8 ovarian, in the experiment on RPMI-8226 leukemia, in the experiment with NCI-H226 lung, in the experiment with SR leukemia, with MALME-3M melanoma and in the experiment on UACC-257 melanoma was over 100 µM each time. Further, the TGI in the experiment with SK-MEL-28 melanoma, with MCF7 breast and in the experiment with HOP-62 NSCLC was over 100 µM each time.

(Values after PubChem BioAssay (NCI).)
